A short description of experiment [1]: Concentration required to inhibit DNA dependent RNA polymerase was determined from calf thymus.
Experiment [2] can be described thus: Concentration required to inhibit RNA dependent RNA polymerase was determined from polio virus.
Test in experiment [3]: as above
This is another data set of the same source.

The IC50 is the concentration at which inhibition is half-maximal. Low values mean inhibition by little substance, high ones a need for much substance.

In the case of `O=C(O)c1ccc2[nH]cc(C[C@H](NC(=O)c3ccc4c(c3)nc(-c3ccoc3)n4C3CCCCC3)C(=O)O)c2c1` [3-{(S)-2-Carboxy-2-[(1-cyclohexyl-2-furan-3-yl-1H-benzoimidazole-5-carbonyl)-amino]-ethyl}-1H-indole-5-carboxylic acid], the IC50 in experiment [1] was above 250 µM; in experiment [2] it was above 200 µM.
For `O=C(N[C@@H](Cc1c[nH]c2ccc(O)cc12)C(=O)O)c1ccc2c(c1)nc(-c1ccoc1)n2C1CCCCC1` [(S)-2-[(1-Cyclohexyl-2-furan-3-yl-1H-benzoimidazole-5-carbonyl)-amino]-3-(5-hydroxy-1H-indol-3-yl)-propionic acid], the IC50 in experiment [3] is 79 µM; in experiment [1], above 200 µM.
In turn, `CS(=O)(=O)Nc1ccc2[nH]cc(C[C@H](NC(=O)c3ccc4c(c3)nc(-c3ccoc3)n4C3CCCCC3)C(=O)O)c2c1` [(S)-2-[(1-Cyclohexyl-2-furan-3-yl-1H-benzoimidazole-5-carbonyl)-amino]-3-(5-methanesulfonylamino-1H-indol-3-yl)-propionic acid] yielded an IC50 in experiment [2] above 500 µM.
`O=C(N[C@@H](Cc1c[nH]c2ccc(NS(=O)(=O)C(F)(F)F)cc12)C(=O)O)c1ccc2c(c1)nc(-c1ccoc1)n2C1CCCCC1` [(S)-2-[(1-Cyclohexyl-2-furan-3-yl-1H-benzoimidazole-5-carbonyl)-amino]-3-(5-trifluoromethanesulfonylamino-1H-indol-3-yl)-propionic acid]: the IC50 in experiment [1] and in experiment [2] was above 250 µM each time.
Regarding `O=C(N[C@@H](Cc1c[nH]c2ccc(-c3nnn[nH]3)cc12)C(=O)O)c1ccc2c(c1)nc(-c1ccoc1)n2C1CCCCC1` [(S)-2-[(1-Cyclohexyl-2-furan-3-yl-1H-benzoimidazole-5-carbonyl)-amino]-3-[5-(5H-tetrazol-5-yl)-1H-indol-3-yl]-propionic acid], the IC50 in experiment [3] is above 200 µM; in experiment [1], above 250 µM.
On the same counts, the results for `O=C(O)C(=O)Nc1ccc2[nH]cc(C[C@H](NC(=O)c3ccc4c(c3)nc(-c3ccoc3)n4C3CCCCC3)C(=O)O)c2c1` [(S)-2-[(1-Cyclohexyl-2-furan-3-yl-1H-benzoimidazole-5-carbonyl)-amino]-3-[5-(oxalyl-amino)-1H-indol-3-yl]-propionic acid] are above 250 µM and above 250 µM.
For the compound `O=C(O)COc1ccc2[nH]cc(C[C@H](NC(=O)c3ccc4c(c3)nc(-c3ccoc3)n4C3CCCCC3)C(=O)O)c2c1` [(S)-3-(5-(carboxymethoxy)-1H-indol-3-yl)-2-(1-cyclohexyl-2-(furan-3-yl)-1H-benzo[d]imidazole-5-carboxamido)propanoic acid], the IC50 in experiment [3] is 100 µM; in experiment [1], above 200 µM.
As to `CC(=O)Nc1ccc2[nH]cc(C[C@H](NC(=O)c3ccc4c(c3)nc(-c3ccoc3)n4C3CCCCC3)C(=O)O)c2c1` [(S)-3-(5-Acetylamino-1H-indol-3-yl)-2-[(1-cyclohexyl-2-furan-3-yl-1H-benzoimidazole-5-carbonyl)-amino]-propionic acid], the figures for the IC50 in experiment [1] and in experiment [2] were above 250 µM and above 125 µM, respectively.
Regarding `Nc1ccc2[nH]cc(C[C@H](NC(=O)c3ccc4c(c3)nc(-c3ccoc3)n4C3CCCCC3)C(=O)O)c2c1` [(S)-3-(5-Amino-1H-indol-3-yl)-2-[(1-cyclohexyl-2-furan-3-yl-1H-benzoimidazole-5-carbonyl)-amino]-propionic acid], the IC50 is above 500 µM in experiment [3] and above 250 µM in experiment [1].
Turning to `NC(=O)c1ccc2[nH]cc(C[C@H](NC(=O)c3ccc4c(c3)nc(-c3ccoc3)n4C3CCCCC3)C(=O)O)c2c1` [(S)-3-(5-Carbamoyl-1H-indol-3-yl)-2-[(1-cyclohexyl-2-furan-3-yl-1H-benzoimidazole-5-carbonyl)-amino]-propionic acid], the IC50 in experiment [1] is above 250 µM; in experiment [2], above 200 µM.
In experiment [2], `CC(C)(Oc1ccc2[nH]cc(C[C@H](NC(=O)c3ccc4c(c3)nc(-c3ccoc3)n4C3CCCCC3)C(=O)O)c2c1)C(=O)O` [(S)-3-[5-(1-Carboxy-1-methyl-ethoxy)-1H-indol-3-yl]-2-[(1-cyclohexyl-2-furan-3-yl-1H-benzoimidazole-5-carbonyl)-amino]-propionic acid] displayed an IC50 above 200 µM.

The record behind these values is BindingDB's records for doi:10.1016/j.bmcl.2003.12.032 (Boehringer Ingelheim (Canada), 2004).
